{"source": "patent US20240238380A1", "about": "“COMPOSITION FOR COMBINATION THERAPY COMPRISING GROWTH DIFFERENTIATION FACTOR-15 VARIANT AND GLUCAGON-LIKE PEPTIDE-1 RECEPTOR AGONIST” (YUHAN CORPORATION, priority 2021, published 2024)", "type_in_all_cases": "in vivo", "key": {"[1]": {"assay": "Anti-obesity effect alone and in combination with semaglutide or tirzepatide in DIO mice (Example 7)", "conditions": "for Change in body weight (%) vs. day 0, Maximum efficacy: 4 weeks", "source_text": "Diet-induced obese (DIO) mice, obtained by feeding mice with high-fat diet, are characterized by obesity, hyperglycemia, and insulin resistance. Diet-induced obese mice (Taconic, USA) resulting from feeding C57BL/6N mice with high-fat food (60 kcal % fat, Research Diets, Cat #D12492, USA) for 8 weeks were purchased from Raon Bio (Animal Inc., Republic of Korea). The diet-induced obese mice were additionally fed with 60% high-fat food for 5 weeks after arrival, and then used in the present test. On the day before drug treatment, the mice were grouped based on the average body weight of individual mice (n=6 per group), after which 0.1 and 1 nmol/kg of FM9-6+Fc_hole alone, 10 nmol/kg of semaglutide (long-acting GLP-1 derivative, SEQ ID NO: 114) and 10 nmol/kg of tirzepatide (long-acting GLP-1/GIP derivative, SEQ ID NO: 117) alone as control drugs, FM9-6+Fc_hole and semaglutide at doses of 0.1+10 and 1+10 nmol/kg in combination, and FM9-6+Fc_hole and tirzepatide at doses of 1+10 nmol/kg in combination were subcutaneously administered thereto every 3 days (Q3D) for a total of 4 weeks. The semaglutide that was used in the test was Ozempic® (semaglutide) from Novo NorDisk, and the tirzepatide that was used was a material synthesized by MedChemExpress (HY-P1731B, USA). Here, DPBS (Dulbecco's phosphate-buffered saline, Gibco, USA) was administered for vehicle treatment, and, during the experimental period (26 days), body weight was measured every day and food intake was measured every 3 days."}, "[2]": {"assay": "Pharmacokinetics of long-acting GDF15 fusion protein (dimer) in C57BL/6N mice", "conditions": "1 mg/kg subcutaneous", "protocol": "6-week-old male C57BL/6N mice (Orient Bio, Republic of Korea) were purchased from Hallym Lab. Animal Inc., Republic of Korea. Animals were acclimated for 7 days, and on the day of drug administration, the mice were grouped based on the average body weight of individual mice (n=3 per blood sampling time per group). Then, FM9-4+Fc_hole, FM9-6+Fc_hole, FM11-4+Fc_hole, and FM11-6+Fc_hole were subcutaneously administered at 1 mg/kg to each group, and blood samples were collected at 4, 24, 48, 72, 96, 120, 168, and 240 hours after administration. Determination of active GDF15 in serum was achieved by enzyme-linked immunosorbent assay (ELISA), and pharmacokinetic parameters of each long-acting GDF15 fusion protein (dimer) are shown in Table 3 below."}, "[3]": {"assay": "Anti-obesity and metabolic parameter effects alone and in combination with large dose of semaglutide in ob/ob mice (Example 6)", "conditions": "1 nmol/kg s.c. Q3D", "source_text": "5-week-old male ob/ob mice (Jackson Laboratory, USA) were purchased from Raon Bio (Animal Inc., Republic of Korea). The ob/ob mice were acclimatized with normal chow or normal chow diet (Teklad Certified Irradiated Global 18% Protein Rodent Diet, 2918C, Harlan Co., USA) for 5 weeks, and drug treatment was started at 10 weeks of age. On the day before drug treatment, the mice were grouped based on the body weight of individual mice and random blood glucose levels determined by sampling at the tail vein (n=6 per group). Thereafter, 1 nmol/kg of FM9-6+Fc_hole alone, 30 nmol/kg of semaglutide alone, and FM9-6+Fc_hole and semaglutide in combination (1+30 nmol/kg) were subcutaneously administered thereto a total of 9 times every 3 days (Q3D), and body weight, food intake, and non-fasting blood glucose were measured every day or every 3 days during the experimental period (24 days). Here, DPBS (Dulbecco's phosphate-buffered saline, Gibco, USA) was administered for vehicle treatment."}, "[4]": {"assay": "Anti-obesity effect by repeated administration alone and in combination with semaglutide in ob/ob mice (Example 5)", "source_text": "The ob/ob mouse has a mutation in the leptin gene resulting in leptin deficiency, and are characterized by hyperglycemia, insulin resistance, overeating, and obesity. 5-week-old male ob/ob mice (Jackson Laboratory, USA) were purchased from Raon Bio (Animal Inc., Republic of Korea). The ob/ob mice were acclimatized with normal food (Teklad Certified Irradiated Global 18% Protein Rodent Diet, 2918C, Harlan Co., USA) for 4 weeks, and drug treatment was started at 9 weeks of age. On the day before drug treatment, the mice were grouped based on the body weight of individual mice and random blood glucose levels determined by sampling at the tail vein (n=6 per group). Thereafter, 1 and 10 nmol/kg of FM9-6+Fc_hole alone, 10 and 30 nmol/kg of semaglutide alone, and FM9-6+Fc_hole and semaglutide at doses of 1+10 and 10+10 nmol/kg in combination were subcutaneously administered thereto a total of 10 times every 3 days (Q3D), and body weight and food intake were measured every day or every 3 days during the experimental period (29 days). Here, DPBS (Dulbecco's phosphate-buffered saline, Gibco, USA) was administered for vehicle treatment."}}, "note": "Marks after values point to notes of the source that are not given here.", "data": [{"substance": "FM9-6 + Fc_hole: long-acting GDF15 fusion protein (dimer): GDF15 ΔN2, S64R, IgG1 Fc_knob/Fc_hole, linker GS(EAAAK)5; SEQ ID NOs: 103 and 47", "values": [{"measurement": "Change in body weight (%) vs. day 0, Maximum efficacy", "setting": "[1]; 0.1 nmol/kg s.c. Q3D", "value": "−6.75 (On Day 25)** %"}, {"measurement": "Change in body weight (%) vs. day 0, Efficacy on Day 26", "setting": "[1]; 0.1 nmol/kg s.c. Q3D", "value": "−6.68** %"}, {"measurement": "Change in body weight (%) vs. day 0, Maximum efficacy", "setting": "[1]; 1 nmol/kg s.c. Q3D", "value": "−16.33 (On Day 23)**** %"}, {"measurement": "Change in body weight (%) vs. day 0, Efficacy on Day 26", "setting": "[1]; 1 nmol/kg s.c. Q3D", "value": "−16.29**** %"}, {"measurement": "AUClast", "setting": "[2]", "value": 939.30872, "unit": "µg·h/mL"}, {"measurement": "CL/F", "setting": "[2]", "value": 21.8, "unit": "mL/day/kg"}, {"measurement": "T1/2,app", "setting": "[2]", "value": 84.28, "unit": "h"}, {"measurement": "Tmax", "setting": "[2]", "value": 24, "unit": "h"}, {"measurement": "Cmax", "setting": "[2]; active GDF15 in serum by ELISA", "value": 7581.92, "unit": "ng/mL"}, {"measurement": "Change in body weight (%) vs. ob/ob control, Efficacy on Day 24", "setting": "[3]", "value": "−23.37**** %"}, {"measurement": "Mean of random blood glucose levels (mg/dL), Efficacy on Day 24", "setting": "[3]", "value": "116.2**** mg/dL"}, {"measurement": "Change in body weight (%) vs. ob/ob control, Maximum efficacy", "setting": "[4]; 1 nmol/kg s.c. Q3D", "value": "−21.49 (On Day 29)**** %"}, {"measurement": "Change in body weight (%) vs. ob/ob control, Efficacy on Day 29", "setting": "[4]; 1 nmol/kg s.c. Q3D", "value": "−21.49**** %"}, {"measurement": "Change in body weight (%) vs. ob/ob control, Maximum efficacy", "setting": "[4]; 10 nmol/kg s.c. Q3D", "value": "−24.87 (On Day 29)**** %"}, {"measurement": "Change in body weight (%) vs. ob/ob control, Efficacy on Day 29", "setting": "[4]; 10 nmol/kg s.c. Q3D", "value": "−24.87 **** %"}]}]}
